In patent publication US12259388B2, “Cofilin phosphorylation for quantifying CD4 T cell damage and predict CD4 T cell recovery from anti-retroviral therapy” (VIRONGY L.L.C., priority 2018, dated 2025):

Tests used:
[1] = system: cofilin, LIMK in resting CD4 T cells; conditions: cited from earlier work; for effect on cofilin activation / phosphorylation: resting CD4 T cells
[2] = system: HIV-1; conditions: cited from earlier work
[3] = system: cofilin phosphorylation in A3R5.7 CD4 T cells; assay: Western blot for p-cofilin and cofilin after R10015 treatment; type: cell-based, human
Experimental: (§1) FIG. 3. Quantification of effects of cofilin hyperactivation on T cell migration. (A) A3R5.7 T cells were treated with different dosages of R10015 for one hour. Phospho-cofilin and total cofilin were quantified by Western blot. (B) The relative ratio of p-cofilin/cofilin in response to R10015 treatment was plotted (n=4 independent experiments). (C) R10015 inhibits cofilin phosphorylation and T cell chemotaxis in response to CXCL12. A3R5.7 cells were treated with different dosages of R10015 for one hour, and then added to the upper chamber of a 24-well transwell plate. The lower chamber was filled with CXCL12 (40 ng/ml), and cell migration to the lower chamber was quantified (n=3 independent experiments). (D) The linear correlation between T cell migration and levels of cofilin phosphorylation. The X-axis is the relative ratio of p-cofilin/cofilin derived from (B); the Y-axis is the number of migrating cells derived from (C).
(§2) T cell migration is controlled by cycles of cofilin phosphorylation and dephosphorylation, which are regulated by the LIM-domain kinase (LIMK) through serine 3 phosphorylation (27, 54). To quantify the direct effect of cofilin hyperactivation on T cell migration, we used a recently discovered LIMK inhibitor, R10015 (55), to block cofilin phosphorylation in A3R5.7 CD4 T cells. We then performed CXCL12-induced T cell chemotaxis in the presence of cofilin hyperactivation. […]

[4] = system: A3R5.7 CD4 T cells; assay: CXCL12-induced T cell chemotaxis (transwell) assay; type: cell-based, human; conditions: CXCL12 40 ng/ml
Experimental: as §1, with “(D) The linear correlation between T cell migration and levels of cofilin phosphorylation. The X-axis is the relative ratio of p-cofilin/cofilin derived from (B); the Y-axis is the number of migrating cells derived from (C).” left out
as §2, with “cells.” for “cells. We then performed CXCL12-induced T cell chemotaxis in the presence of cofilin hyperactivation.”
A half million cells were resuspended into 100 μl RPMI-1640 medium and then added to the upper chamber of a 24-well transwell plate (Corning, Corning, NY). […] The plate was incubated at 37° C. for 2 hours, and then the upper chamber was removed and cells in the lower chamber were counted. […]

| Compound | effect on cofilin activation / phosphorylation [1] | effect on HIV latent infection of resting CD4 T cells [2] | effect on LIMK ([1]; transient treatment of resting CD4 T cells) | inhibition of cofilin phosphorylation ([3]; A3R5.7 CD4 T cells, different dosages of R10015 for one hour, ratio p-cofilin/cofilin) | cofilin phosphorylation reduced to ([3]; at around 15 M of R10015, A3R5.7 cells, one hour) | decrease in cell migration ([4]; A3R5.7 CD4 T cells, at 50% reduction in cofilin phosphorylation) | T cell chemotaxis in response to CXCL12 ([4]; A3R5.7 cells treated one hour) |
| --- | --- | --- | --- | --- | --- | --- | --- |
| CN[C@@H]1C[C@H]2O[C@@](C)([C@@H]1OC)n1c3ccccc3c3c4c(c5c6ccccc6n2c5c31)C(=O)NC4 [staurosporine] | induce gradual cofilin activation | enhances HIV latent infection | – | – | – | – | – |
| pertussis toxin | inhibits cofilin activation | inhibits | – | – | – | – | – |
| C=C1[C@@H](O)[C@@H]2O[C@]3(CC[C@H](/C=C/[C@@H](C)[C@@H]4CC(C)=C[C@@]5(O[C@H](C[C@@](C)(O)C(=O)O)CC[C@H]5O)O4)O3)CC[C@H]2O[C@@H]1[C@@H](O)C[C@H](C)[C@H]1O[C@@]2(CCCCO2)CC[C@H]1C [okadaic acid] | increase cofilin phosphorylation | promotes HIV latent infection | activates LIMK | – | – | – | – |
| COC(=O)c1ccc2nc(C3CCN(c4ncnc5[nH]cc(Cl)c45)CC3)[nH]c2c1 [R10015] | – | – | – | dosage-dependent inhibition of cofilin phosphorylation | around 50% | 20-40% | inhibits |
